Measurements as given in article PMC8400246, “Antimicrobial Activity and Action Mechanisms of Arg-Rich Short Analog Peptides Designed from the C-Terminal Loop Region of American Oyster Defensin (AOD)” (Marine Drugs, 2021).
Positions of bridges follow the written chain, without caps; N, C: chain ends. Residues, ends and D or L forms follow the SMILES beside them.

Tests used:
S. mutans KCCM40105 = experiment: Ultrasensitive radial diffusion assay (URDA), MEC; format: cell-based, Streptococcus mutans; conditions: S. mutans KCCM40105, Gram +, pH 6.6, 37 °C, triplicate, averaged
Protocol: (§1) The antimicrobial activity of the AOD analogs was assessed with an ultrasensitive radial diffusion assay (URDA), as described previously. The antimicrobial activity of the analogs (from 31.3 to 1000 μg/mL, 5 μL volume) was tested against several bacteria, including Bacillus subtilis KCTC1021, Streptococcus mutans KCCM40105, Aeromonas hydrophila KCTC2358, Escherichia coli D31, E. coli ML35p, Pseudomonas aeruginosa KCTC2004, Salmonella enterica KCTC2514, and Shigella sonnei KCTC2009. In addition, Cutibacterium acnes KCTC3314, Staphylococcus epidermidis KCTC1917, and Candida albicans KCTC7965 were used for the anti-acne activity test. All except C. acnes KCTC3314 were grown overnight for 18 h in tryptic soy broth (TSB; for bacteria) or Sabouraud dextrose broth (SDB; for C. albicans) at the appropriate temperature (25 °C for A. hydrophila, 37 °C for the others). C. acnes was grown for 72 h in reinforced clostridial medium (RCM) under anaerobic conditions with an anaerobic gas-generating pouch (GasPak EZ; Becton Dickinson and Company, Sparks, MD, USA) at 37 °C. Following overnight or 72-h incubation, the bacterial and C. albicans suspensions were diluted to a McFarland turbidity standard level of 0.5 (Vitek Colorimeter #52-1210; Hach, Loveland, CO, USA) corresponding to approximately 10^8 colony forming units (CFU)/mL for bacteria and 10^6 CFU/mL for C. albicans. Diluted bacterial or C. albicans suspension (0.5 mL) was added to 9.5 mL underlay gel containing 5 × 10^6 or 5 × 10^4 CFU/mL in 10 mM phosphate buffer (pH 6.6) with 0.03% TSB (or RCM) or 0.03% SDB and 1% Type I low-electroendosmosis agarose. The AOD analogs were serially diluted two-fold in 5 µL acidified water (0.01% acetic acid; HAc) and each dilution was added to 2.5-mm diameter wells in the 1-mm thick underlay gel. After incubation for 3 h at either 25 °C (for A. hydrophila) or 37 °C (for the others), the bacterial or yeast suspension was overlaid with 10 mL double-strength overlay gel containing 6% TSB, RCM, or SDB with 10 mM phosphate buffer (pH 6.6) in 1% agarose. Plates were incubated for an additional 18–24 h (72 h for C. acnes) and the clearing zone diameters were measured. After subtracting the diameter of the well (2.5 mm), the clearing zone diameter was expressed in units (0.1 mm = 1 U).
(§2) The minimal effective concentration (MEC; μg/mL) of the AOD analogs was calculated as the X-intercept of a plot of clearing zone diameter units against the log10 of the peptide concentration. Piscidin 1, an α-helical AMP isolated from hybrid striped bass (Morone saxatilis × Morone chrysops) was used as a positive control.

P. aeruginosa KCTC2004 = experiment: Ultrasensitive radial diffusion assay (URDA), MEC; format: cell-based, Pseudomonas aeruginosa; conditions: P. aeruginosa KCTC2004, Gram -, pH 6.6, 37 °C, triplicate, averaged
Protocol: as §1, §2

C. acnes KCTC3314 = experiment: Ultrasensitive radial diffusion assay (URDA), MEC; format: cell-based, Cutibacterium acnes; conditions: C. acnes KCTC3314, Gram +, anaerobic, RCM, 72 h, 37 °C, triplicate, averaged
Protocol: as §1, §2

[1] = tested on: tested strains (bacteria and the yeast C. albicans); experiment: URDA, overall antimicrobial activity; format: cell-based; conditions: all tested strains
Protocol: The antimicrobial activity of the AOD analogs was assessed with an ultrasensitive radial diffusion assay (URDA), as described previously. The antimicrobial activity of the analogs (from 31.3 to 1000 μg/mL, 5 μL volume) was tested against several bacteria, including Bacillus subtilis KCTC1021, Streptococcus mutans KCCM40105, Aeromonas hydrophila KCTC2358, Escherichia coli D31, E. coli ML35p, Pseudomonas aeruginosa KCTC2004, Salmonella enterica KCTC2514, and Shigella sonnei KCTC2009. In addition, Cutibacterium acnes KCTC3314, Staphylococcus epidermidis KCTC1917, and Candida albicans KCTC7965 were used for the anti-acne activity test. All except C. acnes KCTC3314 were grown overnight for 18 h in tryptic soy broth (TSB; for bacteria) or Sabouraud dextrose broth (SDB; for C. albicans) at the appropriate temperature (25 °C for A. hydrophila, 37 °C for the others). C. acnes was grown for 72 h in reinforced clostridial medium (RCM) under anaerobic conditions with an anaerobic gas-generating pouch (GasPak EZ; Becton Dickinson and Company, Sparks, MD, USA) at 37 °C. […] Plates were incubated for an additional 18–24 h (72 h for C. acnes) and the clearing zone diameters were measured. […]
The minimal effective concentration (MEC; μg/mL) of the AOD analogs was calculated as the X-intercept of a plot of clearing zone diameter units against the log10 of the peptide concentration. […]

A. hydrophila KCTC2358 = experiment: Ultrasensitive radial diffusion assay (URDA), MEC; format: cell-based, Aeromonas hydrophila; conditions: A. hydrophila KCTC2358, Gram -, pH 6.6, 25 °C, triplicate, averaged
Protocol: as §1, §2

S. enterica KCTC2514 = experiment: Ultrasensitive radial diffusion assay (URDA), MEC; format: cell-based, Salmonella enterica; conditions: S. enterica KCTC2514, Gram -, pH 6.6, 37 °C, triplicate, averaged
Protocol: as §1, §2

S. sonnei KCTC2009 = experiment: Ultrasensitive radial diffusion assay (URDA), MEC; format: cell-based, Shigella sonnei; conditions: S. sonnei KCTC2009, Gram -, pH 6.6, 37 °C, triplicate, averaged
Protocol: as §1, §2

C. albicans KCTC7965 = experiment: Ultrasensitive radial diffusion assay (URDA), MEC; format: cell-based, Candida albicans; conditions: C. albicans KCTC7965, yeast, SDB, pH 6.6, 37 °C, triplicate, averaged
Protocol: as §1, §2

S. epidermidis KCTC1917 = experiment: Ultrasensitive radial diffusion assay (URDA), MEC; format: cell-based, Staphylococcus epidermidis; conditions: S. epidermidis KCTC1917, Gram +, pH 6.6, 37 °C, triplicate, averaged
Protocol: as §1, §2

E. coli ML35p = experiment: Ultrasensitive radial diffusion assay (URDA), MEC; format: cell-based, Escherichia coli; conditions: Gram -, pH 6.6, 37 °C, triplicate, averaged
Protocol: as §1, §2

E. coli D31 = experiment: Ultrasensitive radial diffusion assay (URDA), MEC; format: cell-based, Escherichia coli; conditions: E. coli D31, Gram -, pH 6.6, 37 °C, triplicate, averaged
Protocol: as §1, §2

B. subtilis KCTC1021 = experiment: Ultrasensitive radial diffusion assay (URDA), MEC; format: cell-based, Bacillus subtilis; conditions: B. subtilis KCTC1021, Gram +, 10 mM phosphate buffer pH 6.6, 37 °C, X-intercept of clearing zone vs log10 concentration, triplicate, averaged
Protocol: as §1, §2

100-bp DNA ladder = experiment: DNA binding assay (electrophoretic mobility shift); conditions: 1 μg analog with 0.2 μg 100-bp DNA ladder, 37 °C, 60 min, 1.8% agarose gel with EtBr
Protocol: To evaluate the binding ability of the AOD analogs to intracellular components, a DNA binding assay was performed as previously described with minor modifications. The DNA-binding ability of the AOD analogs was assessed through observation of the inhibition of migration of DNA bands through agarose gels. A commercial 100-bp DNA ladder (0.2 μg) (Bioneer Corp., Daejeon, South Korea) was mixed with each analog (1 μg) in 0.01% acetic acid, and the resulting mixture was incubated at 37 °C for 60 min and then electrophoresed on 1.8% agarose gels containing 0.5 μg/mL ethidium bromide (EtBr). HAc (0.01%) was used as a negative control.
To determine the concentration required for the interaction of AOD analogs with DNA, a DNA binding assay was performed with various mixing ratios of analog A3 (0.25–1.0 μg/mL) and 100-bp DNA ladder (0.1–0.4 μg), as described above.

[2] = tested on: 100-bp DNA ladder and DNA polymerase; experiment: Competitive binding between DNA and DNA polymerase; conditions: 1 μg peptide, 0.2 μg 100-bp DNA ladder, DNA polymerase 1.0 μL (5 units/μL), 37 °C, 60 min
Protocol: To assess the preferential binding ability of the AOD analogs to DNA or DNA polymerase, a competitive binding assay was performed. Briefly, AOD analog was added to a reaction mixture containing DNA or DNA polymerase and incubated for 60 min at 37 °C. […] Piscidin 1 and 0.01% HAc were the positive and negative controls, respectively.

[3] = tested on: E. coli DH5α genomic DNA (16S ribosomal gene); experiment: DNA amplification (PCR) inhibition assay; format: biochemical, Escherichia coli; conditions: 1.5 µg of each analog, 0.2 µg E. coli DH5α gDNA, 30 cycles
Protocol: To determine whether AOD analogs target DNA amplification, the ability of the analogs to inhibit DNA amplification was assessed using E. coli DH5α genomic DNA (gDNA). Total gDNA was extracted using the phenol–chloroform method, as described previously. To assess the inhibition of DNA amplification, 1.5 µg AOD analog was added to the polymerase chain reaction (PCR) mixture. The PCR solution consisted of 0.2 µg purified gDNA, 5 µL 10× PCR buffer with MgCl2, 4 µL of each dNTP at 2.5 mM, 0.25 μL Ex Taq polymerase (Takara Bio, Shiga, Japan), 2.0 pmol each of primers 27F (5′-[…]-3′) and 1492R (5′-TACGGCTACCTTGTTACGA-CTT-3′), and up to 50 µL sterile distilled water. The PCR thermal cycling conditions were as follows: initial denaturation at 94 °C for 5 min; 30 cycles of 94 °C for 30 s, 55 °C for 30 s, and 72 °C for 2 min; and a final extension for 10 min at 72 °C. PCR was conducted using a Type 9700 Thermal Cycler (Perkin-Elmer, Norwalk City, CA, USA). The PCR products were confirmed through 1.5% agarose gel electrophoresis with 0.5 μg/mL EtBr. Piscidin 1 was used as a positive control and 0.01% HAc was used as a negative control.

## CC(C)C[C@@H]1NC(=O)[C@H](CO)NC(=O)CNC(=O)[C@H](C)NC(=O)[C@@H](N)CSSC[C@@H](C(=O)O)NC(=O)[C@H]([C@@H](C)O)NC(=O)[C@H](CC(C)C)NC(=O)[C@H](CCCNC(=N)N)NC1=O [Analog A0] (H-CAGSLRLTC-OH; disulfide 1-9)
S. mutans KCCM40105
  Minimal Effective Concentration: >100.0 µg/mL
P. aeruginosa KCTC2004
  Minimal Effective Concentration: >100.0 µg/mL
C. acnes KCTC3314
  Minimal Effective Concentration: >100.0 µg/mL
[1]
  antimicrobial activity (in words): no activity against any of the tested strains
A. hydrophila KCTC2358
  Minimal Effective Concentration: >100.0 µg/mL
S. enterica KCTC2514
  Minimal Effective Concentration: >100.0 µg/mL
S. sonnei KCTC2009
  Minimal Effective Concentration: >100.0 µg/mL
C. albicans KCTC7965
  Minimal Effective Concentration: >125.0 µg/mL
S. epidermidis KCTC1917
  Minimal Effective Concentration: >100.0 µg/mL
E. coli ML35p
  Minimal Effective Concentration: >100.0 µg/mL
E. coli D31
  Minimal Effective Concentration: >100.0 µg/mL
B. subtilis KCTC1021
  Minimal Effective Concentration: >100.0 µg/mL

## CC(=O)N[C@H]1CSSC[C@@H](C(N)=O)NC(=O)[C@H](CCCNC(=N)N)NC(=O)[C@H](CC(C)C)NC(=O)[C@H](CCCNC(=N)N)NC(=O)[C@H](CCCNC(=N)N)NC(=O)[C@H](Cc2c[nH]c3ccccc23)NC(=O)CNC(=O)[C@H](C)NC1=O [Analog A1] (Ac-CAGWRRLRC-NH2; disulfide 1-9)
S. mutans KCCM40105
  Minimal Effective Concentration: 68.0 µg/mL
P. aeruginosa KCTC2004
  Minimal Effective Concentration: 15.0 µg/mL
100-bp DNA ladder
  electrophoretic mobility of the DNA (DNA-binding ability): inhibited
C. acnes KCTC3314
  Minimal Effective Concentration: >100.0 µg/mL
[1]
  antimicrobial activity (in words): much weaker antimicrobial activity than the other analogs
A. hydrophila KCTC2358
  Minimal Effective Concentration: 17.0 µg/mL
S. enterica KCTC2514
  Minimal Effective Concentration: 24.0 µg/mL
[2]
  competitive binding between DNA and DNA polymerase (electrophoretic mobility of DNA): inhibited
S. sonnei KCTC2009
  Minimal Effective Concentration: 40.0 µg/mL
C. albicans KCTC7965
  Minimal Effective Concentration: >125.0 µg/mL
S. epidermidis KCTC1917
  Minimal Effective Concentration: >100.0 µg/mL
E. coli ML35p
  Minimal Effective Concentration: >100.0 µg/mL
E. coli D31
  Minimal Effective Concentration: 42.0 µg/mL
B. subtilis KCTC1021
  Minimal Effective Concentration: 14.0 µg/mL
[3]
  inhibition of DNA amplification (PCR): partially or completely inhibited

## CC(C)C[C@@H]1NC(=O)[C@H](CCCNC(=N)N)NC(=O)[C@H](CC(C)C)NC(=O)[C@H](CCCNC(=N)N)NC(=O)[C@H](Cc2c[nH]c3ccccc23)NC(=O)[C@H](CCCNC(=N)N)NC(=O)[C@@H](N)CSSC[C@@H](C(=O)O)NC(=O)[C@H](CCCNC(=N)N)NC1=O [Analog A2] (H-CRWRLRLRC-OH; disulfide 1-9)
S. mutans KCCM40105
  Minimal Effective Concentration: 9.9 µg/mL
P. aeruginosa KCTC2004
  Minimal Effective Concentration: 7.6 µg/mL
100-bp DNA ladder
  electrophoretic mobility of the DNA (DNA-binding ability): inhibited
C. acnes KCTC3314
  Minimal Effective Concentration: >100.0 µg/mL
A. hydrophila KCTC2358
  Minimal Effective Concentration: 14.0 µg/mL
S. enterica KCTC2514
  Minimal Effective Concentration: 20.0 µg/mL
[2]
  competitive binding between DNA and DNA polymerase (electrophoretic mobility of DNA): inhibited
S. sonnei KCTC2009
  Minimal Effective Concentration: 18.0 µg/mL
C. albicans KCTC7965
  Minimal Effective Concentration: >125.0 µg/mL
S. epidermidis KCTC1917
  Minimal Effective Concentration: 24.0 µg/mL
E. coli ML35p
  Minimal Effective Concentration: 13.0 µg/mL
E. coli D31
  Minimal Effective Concentration: 2.0 µg/mL
B. subtilis KCTC1021
  Minimal Effective Concentration: 3.8 µg/mL
[3]
  inhibition of DNA amplification (PCR): did not inhibit
